Measured values published in patent US11344510B2, “Arylcyclohexylamine derivatives and their use in the treatment of psychiatric disorders” (Gilgamesh Pharmaceuticals, Inc., priority 2019, dated 2022).
Like-named read-outs stand apart in the source and are kept apart here.

Legend:
[1] = Exposure after intraperitoneal administration in mice; type: in vivo; conditions: CD-1 mice; for Cmax and AUC compared to ketamine at 10 mg/kg: plasma and brain; for AUC(0-inf) / Cmax: male, mouse
Description: Animals. Male CD-1 mice were used in these studies Animals were randomly assigned to treatment groups and were fasted for 4 h before dosing.
Drugs. Test compounds (HCl salts) were dissolved in de-ionized water and administered intraperitoneally (ip) at the indicated doses (calculated based on freebase) and at a volume of 5 mL/kg body weight. Compounds were tested as the racemates (indicated by “rac” nomenclature) or pure enantiomers (indicated by “R” or “S” nomenclature), as indicated.
Pharmacokinetics. Blood samples were collected under 2,2,2-tribromoethanol anesthesia (150 mg/kg, ip) from the orbital sinus at 0.083, 0.25, 0.5, 1, and 2 h (ketamine, 4 animals per time point) or 0.083, 0.25, 0.5, 1, 2, 4, and 8 h (14R and 14S, 4 animals per time point) into microcontainers containing K2EDTA Immediately after collection of blood, mice were euthanized by cervical dislocation and brain samples were collected at the same time points. All samples were immediately processed, flash-frozen, and stored at −70° C. until subsequent analysis. Plasma samples were separated by centrifugation of whole blood and aliquots (50 μL) were mixed with 200 μL, of internal standard solution (400 ng/mL in 1:1 v/v CH3CN:MeOH). After mixing by pipetting and centrifuging for 4 min at 6000 rpm, 0.5 μL of each supernatant was analyzed for drug using a fit-for-purpose liquid chromatography-tandem mass spectrometry (LC-MS/MS) method, with authentic samples of each analyte used for calibration and identification. Brain samples (weight 200 mg±1 mg) were dispersed in 800 μL of internal standard solution (400 ng/mL in 4:1 v/v MeOH:water) using zirconium oxide beads (115 mg±5 mg) in The Bullet Blender® homogenizer for 30 s at speed 8. After homogenization, the samples were centrifuged for 4 min at 14,000 rpm and 0.5 μL of each supernatant was analyzed for drug using a fit-for-purpose LC-MS/MS method, with authentic samples of each analyte used for calibration and identification.
Data Analysis. The drug concentrations of samples below the lower limit of quantitation (LLOQ) were designated as zero. Pharmacokinetic data analysis was performed using noncompartmental, bolus injection or extravascular input analysis models in WinNonlin 5.2 (PharSight). Data points below LLOQ were presented as missing to improve validity of t112 calculations.

SERT = target: T1, SERT (Homo sapiens, UniProt P31645); experiment: SERT radioligand binding with [3H]imipramine
T1 construct: expressed in transfected cells; host or cells: HEK293
Description: (§1) Radioligand Binding. Affinity of the test compounds for SERT, NET, and DAT was determined in radioligand binding experiments with [^3H]imipramine, [^3]nisoxetine, and [^3H]WIN35,428, respectively, by WuXi AppTec (Hong Kong) Limited, under the conditions described in Table 15.

[2] = Oral bioavailability in rats, Method B; type: in vivo; conditions: Sprague Dawley rats; for AUC(0-t) / half-life / Cmax: male, rat; for AUC(0-t) / half-life / Cmax / F: plasma, Method B; for F: 10 mg/kg
Description: Animals. Male Sprague Dawley rats were used in these studies. Animals were randomly assigned to treatment groups and were fasted overnight before oral dosing.
Drugs. Test compounds were dissolved in a vehicle consisting of normal saline (compounds 14R, 88R, 29rac, and 27rac) or a mixture of 5% v/v N-methyl-2-pyrrolidone, 5% v/v Solutol HS-15, and 90% v/v normal saline (compounds 84R and 84S). They were then administered intravenously (iv) or orally (po) at a dose of 10 mg/kg (calculated based on freebase) and at a volume of 5 mL/kg body weight. Compounds were tested as the racemates (indicated by “rac” nomenclature) or pure enantiomers (indicated by “R” or “S” nomenclature).
Sample Collection and Bioanalysis. Blood samples (approximately 120 μL) were collected under light isoflurane anesthesia (Surgivet®) from the retro orbital plexus at 0.08, 0.25, 0.5, 1, 2, 4, 8, and 24 h (total 8 time points/rat, 4 rats per administration route per compound). Immediately after blood collection, plasma was harvested by centrifugation at 4000 rpm for 10 min at 4° C. and samples were stored at −70±10° C. until bioanalysis. For bioanalysis, 25 μL aliquots of plasma study samples or spiked plasma calibration standards were added to individual pre-labeled micro-centrifuge tubes followed by 100 μL of an internal standard solution (glipizide, 500 ng/mL in acetonitrile) except for blanks, where 100 μL of acetonitrile was added. Samples were vortexed for 5 minutes and then centrifuged for 10 minutes at 4000 rpm at 4° C. Following centrifugation, 100 μL of each clear supernatant was transferred to a 96 well plate and analyzed with a fit-for-purpose LC-MS/MS method, with authentic samples of each analyte used for calibration and identification. In the case of compounds 14R and 88R, their metabolite 11R was also quantified in plasma samples.
Data Analysis. Pharmacokinetic parameters were estimated using the non-compartmental analysis tool of Phoenix® WinNonlin software (Ver 8.0).

[3] = RLM stability (Low Activity); type: in vitro ADME, Sprague Dawley rats; conditions: male, Sprague Dawley, rat, liver microsomes, pH 7.4, Condition 1 (Low Activity), 0.50 mg protein/mL
Procedure, shortened: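 Pooled male Sprague Dawley rat liver microsomes (0.50 mg/mL) in PBS pH 7.4 with 1 mM MgCl2 and 1 mM NADPH; compound 1 μM, 1.0% solvent, 37° C. Six time points over 60 min, parent remaining by LC-MS/MS; kel, t1/2 and Clint from linear regression of ln(AUC) versus time.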

NET = target: T2, NET (Homo sapiens, UniProt P23975); experiment: NET radioligand binding with [3H]nisoxetine
T2 construct: expressed in transfected cells; host or cells: HEK293
Description: as §1

DAT = target: T3, DAT (Homo sapiens, UniProt Q01959); experiment: DAT radioligand binding with [3H]WIN35,428
T3 construct: expressed in transfected cells; host or cells: CHO (uptake)
Description: as §1

[4] = 10 mg/kg iv, read-out: AUC0-last (iv) (converted)
[5] = 10 mg/kg iv, read-out: t1/2 (iv)
[6] = 10 mg/kg po, read-out: AUC0-last (po) (converted)
[7] = 10 mg/kg po, read-out: t1/2 (po)

T1 sequence (P31645 whole entry, species assumed): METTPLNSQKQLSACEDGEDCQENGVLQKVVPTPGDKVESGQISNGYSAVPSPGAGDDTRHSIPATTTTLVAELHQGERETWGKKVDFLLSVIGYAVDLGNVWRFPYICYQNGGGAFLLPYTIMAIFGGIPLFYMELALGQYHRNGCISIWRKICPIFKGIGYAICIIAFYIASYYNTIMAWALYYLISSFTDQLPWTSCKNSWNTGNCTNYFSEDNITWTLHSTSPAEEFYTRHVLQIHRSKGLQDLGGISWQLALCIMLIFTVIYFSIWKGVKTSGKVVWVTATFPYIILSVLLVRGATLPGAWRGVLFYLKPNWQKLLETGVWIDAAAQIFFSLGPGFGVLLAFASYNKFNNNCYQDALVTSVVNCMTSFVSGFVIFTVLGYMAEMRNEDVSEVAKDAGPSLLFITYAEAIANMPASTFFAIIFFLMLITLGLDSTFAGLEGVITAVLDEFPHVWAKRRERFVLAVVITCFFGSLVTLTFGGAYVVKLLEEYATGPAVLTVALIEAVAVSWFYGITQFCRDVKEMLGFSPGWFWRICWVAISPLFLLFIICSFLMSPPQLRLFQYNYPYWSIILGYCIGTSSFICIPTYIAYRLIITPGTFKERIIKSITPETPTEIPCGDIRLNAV
T2 sequence (P23975 whole entry, species assumed): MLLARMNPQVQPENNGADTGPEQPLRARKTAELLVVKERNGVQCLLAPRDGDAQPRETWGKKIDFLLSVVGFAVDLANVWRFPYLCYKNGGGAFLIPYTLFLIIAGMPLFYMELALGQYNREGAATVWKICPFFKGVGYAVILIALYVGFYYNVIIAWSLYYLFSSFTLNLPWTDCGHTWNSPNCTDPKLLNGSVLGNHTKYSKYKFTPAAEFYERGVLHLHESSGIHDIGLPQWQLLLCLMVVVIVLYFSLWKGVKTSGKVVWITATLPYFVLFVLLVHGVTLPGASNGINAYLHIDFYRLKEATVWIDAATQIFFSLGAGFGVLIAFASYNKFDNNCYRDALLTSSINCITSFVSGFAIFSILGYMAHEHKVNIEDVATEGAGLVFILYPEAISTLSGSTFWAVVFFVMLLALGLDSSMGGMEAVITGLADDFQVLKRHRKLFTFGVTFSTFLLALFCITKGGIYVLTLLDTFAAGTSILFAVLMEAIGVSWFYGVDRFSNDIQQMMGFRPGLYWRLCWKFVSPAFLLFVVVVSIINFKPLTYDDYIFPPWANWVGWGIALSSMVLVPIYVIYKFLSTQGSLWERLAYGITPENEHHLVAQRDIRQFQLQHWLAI
T3 sequence (Q01959 whole entry, species assumed): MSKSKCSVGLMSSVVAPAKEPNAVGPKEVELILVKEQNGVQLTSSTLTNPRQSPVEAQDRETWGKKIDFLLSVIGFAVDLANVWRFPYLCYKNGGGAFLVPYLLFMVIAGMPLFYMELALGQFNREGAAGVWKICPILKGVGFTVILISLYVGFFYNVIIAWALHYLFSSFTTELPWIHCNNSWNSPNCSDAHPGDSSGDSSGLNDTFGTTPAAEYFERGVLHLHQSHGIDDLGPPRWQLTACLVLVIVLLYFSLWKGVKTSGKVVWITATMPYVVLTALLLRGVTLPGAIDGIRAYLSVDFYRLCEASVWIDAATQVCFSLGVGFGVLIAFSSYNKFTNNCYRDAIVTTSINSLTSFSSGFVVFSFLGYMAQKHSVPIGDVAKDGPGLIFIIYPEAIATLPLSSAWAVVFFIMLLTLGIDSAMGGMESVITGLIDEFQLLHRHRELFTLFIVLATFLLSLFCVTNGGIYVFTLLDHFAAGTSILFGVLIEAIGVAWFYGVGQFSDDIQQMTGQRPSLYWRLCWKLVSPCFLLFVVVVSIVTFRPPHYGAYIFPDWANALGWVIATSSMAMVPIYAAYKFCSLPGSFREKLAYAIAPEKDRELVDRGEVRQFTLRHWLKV

Row | SMILES | Ki (SERT) [µM] | AUC(0-t) [2, 4] [ng·h/mL] | half-life [2, 5] [min] | Cmax ([2]; 10 mg/kg po) [ng/mL] | AUC(0-t) [2, 6] [ng·h/mL] | half-life [2, 7] [min] | F [2] [%] | half-life at 1 μM [3] [min] | microsomal CLint at 1 μM [3] [µL/min/mg] | Ki (NET) [µM] | Ki (DAT) [µM] | also measured
1 | CN[C@]1(c2ccccc2)CCCCC1=O [Compound 14S, (S)-2-(methylamino)-2-phenylcyclohexan-1-one] | 45.1 |  |  |  |  |  |  |  |  |  |  | Cmax and AUC compared to ketamine at 10 mg/kg ([1]; 3.16 mg/kg ip): comparable to, or higher than; AUC(0-inf) ([1]; brain, 3.16 mg/kg ip): 1220 ng·h/mL; Cmax ([1]; brain, 3.16 mg/kg ip): 3370 ng/mL; AUC(0-inf) ([1]; plasma, 3.16 mg/kg ip): 385 ng·h/mL; Cmax ([1]; plasma, 3.16 mg/kg ip): 875 ng/mL
2 | CN[C@@]1(c2ccccc2)CCCCC1=O [Compound 14R, (R)-2-(methylamino)-2-phenylcyclohexan-1-one] | 40 | 1960 | 37.8 | 235 | 237 | 30.6 | 12 |  |  |  |  | Cmax and AUC compared to ketamine at 10 mg/kg ([1]; 3.16 mg/kg ip): comparable to, or higher than; AUC(0-inf) ([1]; brain, 3.16 mg/kg ip): 2530 ng·h/mL; Cmax ([1]; brain, 3.16 mg/kg ip): 3320 ng/mL; AUC(0-inf) ([1]; plasma, 3.16 mg/kg ip): 703 ng·h/mL; Cmax ([1]; plasma, 3.16 mg/kg ip): 1010 ng/mL; exposure (AUC) to 14R relative to 14S ([1]; same dose, 3.16 mg/kg ip): roughly 2 fold
3 | COCCNC1(c2ccccc2)CCCCC1=O (racemic) [Compound 29rac, 2-((2-methoxyethyl)amino)-2-phenylcyclohexan-1-one] |  | 1710 | 66 | 321 | 353 | 69 | 21 |  |  |  |  | 
4 | Cc1ccccc1[C@@]1(N)CCCCC1=O [Compound 114S, (S)-2-amino-2-(o-tolyl)cyclohexan-1-one] |  |  |  |  |  |  |  | 25.4 | 54.5 |  |  | 
5 | O=C1CCCCC1(c1ccccc1)N1CCCC1 (racemic) [Compound 27rac, 2-phenyl-2-(pyrrolidin-1-yl)cyclohexan-1-one] | 0.11 | 1710 | 97.2 | 197 | 563 | 145 | 33 | 35.4 | 39.1 | 11.5 | 55.1 | 
6 | [2H]C([2H])([2H])N[C@@]1(c2ccccc2)CCCCC1=O [Compound 88R, (R)-2-((methyl-d3)amino)-2-phenylcyclohexan-1-one] |  | 1670 | 59.4 | 393 | 335 | 45.6 | 20 |  |  |  |  | formation of the metabolite 11R compared to 14R after oral administration ([2]; 10 mg/kg po): reduced
7 | O=C1CCCC[C@@]1(c1ccccc1)N1CCC1 [Compound 84S, (S)-2-(azetidin-1-yl)-2-phenyl-cyclohexan-1-one] | 0.72 | 482 | 46.2 | 69.8 | 77 | 37.2 | 16 |  |  | 53.8 | 91.4 | 
8 | CNC1(c2ccccc2Cl)CCCCC1=O (racemic) [rac-ketamine, racemic ketamine, reference compound] |  |  |  |  |  |  |  |  |  |  |  | AUC(0-inf) ([1]; brain, 10 mg/kg ip): 725 ng·h/mL; Cmax ([1]; brain, 10 mg/kg ip): 2250 ng/mL; AUC(0-inf) ([1]; plasma, 10 mg/kg ip): 382 ng·h/mL; Cmax ([1]; plasma, 10 mg/kg ip): 822 ng/mL
9 | Cc1ccccc1[C@]1(N)CCCCC1=O [Compound 114R, (R)-2-amino-2-(o-tolyl)cyclohexan-1-one] |  |  |  |  |  |  |  | 27.6 | 50.3 |  |  | 
10 | O=C1CCCC[C@]1(c1ccccc1)N1CCC1 [Compound 84R, (R)-2-(azetidin-1-yl)-2-phenyl-cyclohexan-1-one] | 0.6 | 369 | 37.2 | 15.5 | 11.9 | 27 | 3 |  |  | 77.8 | > 94.7 | 
